Laboratory results reported in patent publication US20040049353A1, “System and method for monitoring water using bivalve mollusks” (priority 2003, published 2004).

System: mollusks
Assay: Exposure of mollusks in the water-monitoring system to toxicant-loaded water; shell gape and Degree of Alarm (DOA)
Assay type: in vivo
Experimental: Further calibration of the system is performed after one or more mollusk chambers are properly installed. The digital circuitry or computer 39 then monitors the gape of the mollusk during approximately the first three days after installation. From the gape values derived during this period, the computer derives a natural maximum gape value for the individual mollusk. Subsequent calculations based on output from the mollusk chamber 15 are based on the percentage of gape, i.e., the percentage of the maximum gape output value that the presently detected gape output value represents.
When the system 3 contains a number of mollusk chambers 15, the individual mollusk percentage gape data for all of the mollusks of the system is totaled, and the average percentage gape value calculated periodically per sampling interval by computer 38. This mean data value Gi is the variable used as the mollusk output data for determining if toxicants are present in the water being screened.
In the present specification, Gi means the current average mollusk gape data, Gi−1 means the most recent earlier mollusk output value, Gi−2 the next earlier mollusk output variable, etc. The oldest of the gape values is Gi−n+1. Preferably, the set of data values Gi−n+1 to Gi are stored in a FIFO (first-in, first-out) stack data structure in the computer doing the analysis. The stack acts as a shift register, shifting earlier data values as the new data value Gi is acquired. Preferably the value of n is 30, and the data values G are acquired every half-second.
A variable referred to as Degree of Alarm (“DOA”) is derived from the mean mollusk output data using one of a variety of analysis formulae or methods, ranging from simpler models to more complex systems based on neural net technology that can identify the particular toxicant types that are present in the water and causing a reaction by the mollusks.
According to an aspect of the invention, the variance over time of the gape values is one of the best statistical indicators of the pumping of the mollusk. By the term variance, what is meant is a determination of the variability of the gape values from a mean value, which may be determined or expressed using a variety of functions. Particularly preferred, however, is the classical calculation of variance as: [formula]
wherein V is the mean variance in gape over a recent period of time, preferably 30 seconds, R is the mean regression of the gape over the period (regression herein meaning the slope of the best-fit line through the data values of the time period). M may be the traveling mean as defined above, or may be the mean gape taken over another longer period, preferably about one hour.
An implementation of this method is shown by the graphs of FIGS. 7 to 10. Water being screened by a system as described previously was loaded with sulphuric acid, resulting in a drop in pH as shown in the graph of FIG. 7.
An implementation of such a DOA method using a Logistic calculation, with a variance factor added for variances over 50, is illustrated by the graphs of FIGS. 12 to 16.
In this example, a system as in Example 3 was used, only the toxicant introduced was copper (as aqueous CuSO4), as shown in FIG. 17.

[Cl-].[Na+] [chloride, NaCl]
DOA output (Logistic calculation with variance factor for variances over 50, at 0.5 hours, chloride concentration still relatively low): greater than 5 | raw gape data, decreasing gape over time (gradually increasing concentration of chloride (as aqueous NaCl)): less than 40 % of normal maximum gape

O=S(=O)([O-])[O-].[Cu+2] [copper, CuSO4]
DOA values (Logistic calculation with variance factor, out of a possible 10, between 0.5 and 1.0 hours, copper concentration still relatively low): exceed 8 | gape when DOA exceeded 8 (copper (as aqueous CuSO4), between 0.5 and 1.0 hours): 50%

O=S(=O)(O)O [sulphuric acid]
DOA values (spike) (DOA=(V·|R|)/M, water loaded with sulphuric acid, before 200 minutes): greater than 100 | average percentage gape of the mollusks (water loaded with sulphuric acid (drop in pH), shortly after 200 minutes): less than 10 % of the normal maximum | percentage gape when variance spikes (water loaded with sulphuric acid, variance over ten most recent values spikes shortly before 200 minutes): 40%
